Data on two compounds can be found in patent US20120165319A1, “INHIBITORS OF INTERLEUKIN-1 BETA CONVERTING ENZYME” (VERTEX PHARMACEUTICALS INCORPORATED, priority 1995, published 2012).

Data set [1] deals with T1, ICE (Homo sapiens, UniProt P29466).
T1 sequence (P29466 120-297 limits assumed): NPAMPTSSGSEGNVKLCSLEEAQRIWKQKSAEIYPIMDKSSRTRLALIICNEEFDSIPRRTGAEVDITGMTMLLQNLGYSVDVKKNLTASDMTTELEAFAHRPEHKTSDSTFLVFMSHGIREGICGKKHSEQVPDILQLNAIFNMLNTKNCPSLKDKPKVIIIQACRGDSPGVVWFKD
T1 sequence (P29466 317-404 limits assumed): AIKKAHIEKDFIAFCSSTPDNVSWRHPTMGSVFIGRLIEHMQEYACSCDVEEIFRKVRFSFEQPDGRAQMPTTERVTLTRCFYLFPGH
The experiment in a line: Enzyme assay with fluorescent substrate (Acetyl-Tyr-Val-Ala-Asp-AMC); Ki and second order rate constants kinact. Type of data set: biochemical. Conditions: YVAD-AMC substrate; reversible inhibitors (Table 1). How it is done: 2. Enzyme Assay with Fluorescent Substrate
This assay is run essentially according to Thornberry et al. (Nature 356: 768-774 (1992)), using substrate 17 referenced in that article. The substrate is: Acetyl-Tyr-Val-Ala-Asp-amino-4-methylcoumarin (AMC). The following components are mixed:
The assay is run in a 96 well microtiter plate. Buffer and ICE are added to the wells. The components are left to incubate at 37° C. for 15 minutes in a temperature-controlled wellplate. After the 15 minute incubation, the reaction is started by adding substrate directly to the wells and the reaction is monitored @37° C. for 30 minutes by following the release of the AMC fluorophore using an excitation wavelength for 380 nm and an emission wavelength of 460 nm. A linear fit of the data for each well is performed and a rate is determined in fluorescence units per second.
For determination of enzyme inhibition constants (Ki) or the mode of inhibition (competitive, uncompetitive or noncompetitive), the rate data determined in the enzyme assays at varying inhibitor concentrations are computer-fit to standard enzyme kinetic equations (see I. H. Segel, Enzyme Kinetics, Wiley-Interscience, 1975).
The determination of second order rate constants for irreversible inhibitors was performed by fitting the fluorescence vs time data to the progress equations of Morrison. Morrison, J. F., Mol. Cell. Biophys., 2, pp. 347-368 (1985). Thornberry et al. have published a description of these methods for measurement of rate constants of irreversible inhibitors of ICE. Thornberry, N. A., et al. Biochemistry, 33, pp. 3923-3940 (1994). For compounds where no prior complex formation can be observed kinetically, the second order rate constants (kinact) are derived directly from the slope of the linear plots of kobs vs. [I]. For compounds where prior complex formation to the enzyme can be detected, the hyperbolic plots of kobs vs. [I] are fit to the equation for saturation kinetics to first generate Ki and k′. The second order rate constant kinact is then given by k′/Ki.
(§1) The selectivity of a panel of reversible inhibitors for ICE homologs is depicted in Table 1. ICE enzyme assays were performed according to Wilson et al (supra 1994) using a YVAD-AMC substrate (Thornberry et al, supra 1992). Assay of TX activity was performed using the ICE substrate under identical conditions to ICE. Assay of CPP32 was performed using a DEVD-AMC substrate (Nicholson et al., supra 1995). In general, there is low selectivity between ICE and TX for a wide range of scaffolds. None of the synthetic ICE compounds tested are effective inhibitors of CPP32.
(§2) Second-order rate constants for inactivation of ICE and ICE homologs with selected irreversible inhibitors are presented below (Table 2). The irreversible compounds studied are broad spectrum inhibitors of ICE and its homologs. Some selectivity, however, is observed with the irreversible compounds comparing inhibition of ICE and CPP32.

Data set [2] deals with T2, TX (Homo sapiens, UniProt P49662).
T2 construct: made in house; host or cells: Spodoptera frugiperda (Sf9) insect cells, recombinant baculovirus (pVL1393/TX)
T2 sequence (P49662 81-270 limits assumed): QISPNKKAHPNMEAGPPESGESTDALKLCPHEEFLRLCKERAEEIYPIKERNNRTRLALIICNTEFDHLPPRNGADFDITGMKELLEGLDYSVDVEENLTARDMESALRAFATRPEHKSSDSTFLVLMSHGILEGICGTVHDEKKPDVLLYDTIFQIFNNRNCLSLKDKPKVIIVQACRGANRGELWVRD
T2 sequence (P49662 290-377 limits assumed): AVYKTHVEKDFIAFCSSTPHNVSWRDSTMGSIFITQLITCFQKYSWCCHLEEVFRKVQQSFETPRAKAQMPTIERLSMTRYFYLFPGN
The experiment in a line: Inhibition of ICE homologs: TX. Format: biochemical. The note with it: ICE substrate, conditions identical to ICE (Table 1).
Description: Expression of TX in insect cells using a baculovirus expression system. We have subcloned Tx cDNA (Faucheu et al., supra 1995) into a modified pVL1393 transfer vector, co-transfected the resultant plasmid (pVL1393/TX) into insect cells with viral DNA and identified the recombinant baculovirus. After the generation of high titer recombinant virus stock, the medium was examined for TX activity using the visible ICE assay. […] ICE was used as a standard in the assay.
as §1, §2

Data set [3] can be described thus: Measurement of blood levels of prodrugs of 214e after p.o. dosing in mice. Format: in vivo, mouse. How it is done: Measurement of Blood Levels of Prodrugs of 214e
Mice were administered a p.o. dose of compounds 302 and 304a (50 mg/kg) prepared in 0.5% carboxymethylcellulose. Blood samples were collected at 1 and 7 hours after dosing. Serum was extracted by precipitation with an equal volume of acetonitrile containing 2% formic acid followed by centrifugation. The supernatant was analyzed by liquid chromatography-mass spectrometry (ESI-MS) with a detection level of 0.03 to 3 μg/ml.

Data set [4] can be described thus: In vivo bioavailability determination (oral, rat). How it is done: In Vivo Bioavailability Determination
The drugs (10-100 mg/kg) were dosed orally to rats (10 mL/kg) in ethanol/PEG/water, β-cyclodextrin, labrosol/water or cremophor/water. Blood samples were drawn from the carotid artery at 0.25, 0.50, 1, 1.5, 2, 3, 4, 6, and 8 hours after dosing, centrifuged to plasma and stored at −70° C. until analysis. Aldehyde concentrations were determined using an enzymatic assay. Pharmacokinetic analysis of data was performed by non-linear regression using RStrip (MicroMath Software, UT).

In data set [5] the test system is U937 cells. The experiment in a line: Fas-induced apoptosis in U937 cells. The note with it: anti-Fas-induced apoptosis, U937 cells, 20 μM.
Description: Fas-Induced Apoptosis in U937 cells. Compounds were evaluated for their ability to block anti-Fas-induced apopotosis. […] We used this cell line for apoptosis studies. U937 cells were seeded in culture at 1×10^5 cells/ml and grown to ˜5×10^6 cells/ml. For apoptosis experiments, 2×10^6 cells were plated in 24-well tissue culture plates in 1 ml RPMI-1640-10% FBS and stimulated with 100 ng/ml anti-Fas antigen antibody (Medical and Biological Laboratories, Ltd.). After a 24 hr incubation at 37° C., the percentage of apoptotic cells was determined by FACS analysis using ApoTag reagents.
For data set [6], the target named is T3, CPP32 (Homo sapiens, UniProt P42574).
T3 sequence (P42574 29-175 limits assumed): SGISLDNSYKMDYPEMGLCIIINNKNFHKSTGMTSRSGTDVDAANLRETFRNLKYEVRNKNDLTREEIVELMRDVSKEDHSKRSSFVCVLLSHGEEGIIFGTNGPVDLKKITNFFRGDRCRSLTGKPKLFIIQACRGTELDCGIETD
T3 sequence (P42574 176-277 limits assumed): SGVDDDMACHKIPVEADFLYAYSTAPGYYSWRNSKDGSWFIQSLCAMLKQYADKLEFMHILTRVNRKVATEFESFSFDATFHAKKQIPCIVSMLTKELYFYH
The experiment in a line: Inhibition of ICE homologs: CPP32 (DEVD-AMC substrate).

Some results are limits rather than exact numbers.

Take `O=C[C@H](CC(=O)O)NC(=O)[C@@H]1CCCN2C(=O)CC[C@H](NC(=O)c3ccccc3)C(=O)N12` [Compound 214e, [3S(1S,9S)]3-(9-Benzoylamino-6,10-dioxo-1,2,3,4,7,8,9,10-octahydro-6H-pyridazino[1,2-a][1,2]-diazepine-1-carboxamido)-4-oxobutanoic acid]: the Ki (usually a dissociation constant, usually derived from enzyme kinetics or from competition with a known ligand) in data set [1] was 7.5 nM; in data set [2] it was 7 ± 1.1 nM; in data set [6], greater than 1000 nM. For the same compound, in data set [3] (orally, detection level 0.03 to 3 μg/ml), the “blood levels when administered orally” value is no more than 100 ng/mL. For the same compound, the “blood levels of drug when dosed orally” value in data set [4] (oral 10-100 mg/kg, result in words) is “not detected”. For the same compound, in data set [4] (oral, dose 45 mg/kg), the “Drug Availability” value stood at 0.9%. Besides, in data set [4] (plasma, oral, dose 45 mg/kg, read-out: Cmax), the Cmax – broadly, the maximum level reached in the sampled fluid or tissue – worked out at 200 ng/mL. Further, the Inhibition of apoptosis result in data set [5] is on record as “no inhibition”.

In the case of `CC(C)(C)OC(=O)C[C@@H](C=O)NC(=O)[C@@H]1CCCN2C(=O)CC[C@H](NC(=O)c3ccccc3)C(=O)N12` [Compound 302, [3S(1S,9S)3-(9-Benzoylamino-6,10-dioxo-1,2,3,4,7,8,9,10-octahydro-6H-pyriazino-[1,2-a][1,2]diazapine-1-carboxamido)-amino]-4-oxobutanoic acid tert-butyl ester], the “blood levels when administered orally (in words)” value in data set [3] (p.o. 50 mg/kg in 0.5% carboxymethylcellulose, blood at 1 and 7 hours) is “detectable blood levels”.
